Measured values taken from patent US12077503B2, “Substituted cyclic amides and their use as herbicides” (FMC CORPORATION, priority 2015, dated 2024).
Like-named read-outs stand apart in the source and are kept apart here.

Key:
Format in all cases: in vivo
[1] = system: ragweed (common ragweed, Ambrosia elatior); experiment: Test A postemergence; conditions: Ambrosia artemisiifolia, post-emergence, 240 h, postemergence; for pest or weed control at 125 g/ha: 125 g ai/ha
How it was run: (§1)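 Each rating is a visual injury score from 0 to 100 given about 10 d after treatment, judged against untreated controls kept alongside in the greenhouse. In loam soil–sand blend, seeds got a preemergence directed soil spray, while postemergence plants were 2 to 10 cm tall at spraying.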

[2] = system: giant foxtail (Setaria faberii); experiment: Test A postemergence; conditions: Setaria faberi, post-emergence, 240 h, postemergence; for pest or weed control at 125 g/ha: 125 g ai/ha
How it was run: as §1

[3] = system: wheat (Triticum aestivum); experiment: Test A postemergence; conditions: Triticum aestivum, post-emergence, 240 h, postemergence; for plant injury at 125 g/ha: 125 g ai/ha
How it was run: as §1

[4] = system: Galium (catchweed bedstraw, Galium aparine); experiment: Test A postemergence; conditions: Galium, post-emergence, 240 h, postemergence; for pest or weed control at 125 g/ha: 125 g ai/ha
How it was run: as §1

[5] = system: corn (Zea mays); experiment: Test A postemergence; conditions: Zea mays, post-emergence, 240 h, postemergence; for plant injury at 125 g/ha: 125 g ai/ha
How it was run: as §1

[6] = system: blackgrass (Alopecurus myosuroides); experiment: Test A postemergence; conditions: Alopecurus myosuroides, post-emergence, 240 h, postemergence; for pest or weed control at 125 g/ha: 125 g ai/ha
How it was run: as §1

[7] = system: Kochia (Kochia scoparia); experiment: Test A postemergence; conditions: Bassia scoparia, post-emergence, 240 h, postemergence; for pest or weed control at 125 g/ha: 125 g ai/ha
How it was run: as §1

[8] = system: pigweed (Amaranthus retroflexus); experiment: Test A postemergence; conditions: Amaranthus retroflexus, post-emergence, 240 h, postemergence; for pest or weed control at 125 g/ha: 125 g ai/ha
How it was run: as §1

[9] = system: ryegrass, Italian (Italian ryegrass, Lolium multiflorum); experiment: Test A postemergence; conditions: Lolium multiflorum, post-emergence, 240 h, postemergence; for pest or weed control at 125 g/ha: 125 g ai/ha
How it was run: as §1

[10] = system: barnyardgrass (Echinochloa crus-galli); experiment: Test A postemergence; conditions: Echinochloa crus-galli, post-emergence, 240 h, postemergence; for pest or weed control at 125 g/ha: 125 g ai/ha
How it was run: as §1

[11] = system: ducksalad (Heteranthera limosa); experiment: Test B flooded paddy test; conditions: Heteranthera limosa, Flood, 250 g ai/ha, read-out: Ducksalad plant response rating
How it was run: (§2)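 Compound goes directly into floodwater once pots are flooded 3 cm above soil, targeting plants at two leaves; the water depth is then held for the test duration. Plants sit 13–15 d in a greenhouse and are rated visually, 100 denoting complete control.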

[12] = system: sedge, umbrella (small-flower umbrella sedge, Cyperus difformis); experiment: Test B flooded paddy test; conditions: Cyperus difformis, Flood, 250 g ai/ha, read-out: Sedge, Umbrella plant response rating
How it was run: as §2

[13] = system: rice (Oryra sativa); experiment: Test B flooded paddy test; conditions: Oryza sativa, Flood, 250 g ai/ha, read-out: Rice plant response rating
How it was run: as §2

[14] = system: barnyardgrass (Echinochloa crus-galli); experiment: Test B flooded paddy test; conditions: Echinochloa crus-galli, Flood, 250 g ai/ha, read-out: Barnyardgrass plant response rating
How it was run: as §2

[15] = system: pigweed (Amaranthus retroflexus); experiment: Test A preemergence; conditions: Amaranthus retroflexus, pre-emergence, 240 h; for pest or weed control at 125 g/ha: 125 g ai/ha; for pest or weed control at 500 g/ha: 500 g ai/ha
[16] = visual injury rating after approximately 10 d, read-out: Ragweed plant response rating (0 to 100 scale, 0 no effect, 100 complete control)
[17] = visual injury rating after approximately 10 d, read-out: Foxtail, Giant plant response rating (0 to 100 scale, 0 no effect, 100 complete control)
[18] = visual injury rating after approximately 10 d, read-out: Wheat plant response rating (0 to 100 scale, 0 no effect, 100 complete control)
[19] = visual injury rating after approximately 10 d, read-out: Galium plant response rating (0 to 100 scale, 0 no effect, 100 complete control)
[20] = visual injury rating after approximately 10 d, read-out: Corn plant response rating (0 to 100 scale, 0 no effect, 100 complete control)
[21] = visual injury rating after approximately 10 d, read-out: Blackgrass plant response rating (0 to 100 scale, 0 no effect, 100 complete control)
[22] = visual injury rating after approximately 10 d, read-out: Kochia plant response rating (0 to 100 scale, 0 no effect, 100 complete control)
[23] = visual injury rating after approximately 10 d, read-out: Pigweed plant response rating (0 to 100 scale, 0 no effect, 100 complete control)
[24] = visual injury rating after approximately 10 d, read-out: Ryegrass, Italian plant response rating (0 to 100 scale, 0 no effect, 100 complete control)
[25] = visual injury rating after approximately 10 d, read-out: Barnyardgrass plant response rating (0 to 100 scale, 0 no effect, 100 complete control)
[26] = scale of 0 to 100 where 0 is no effect and 100 is complete control
[27] = preemergence, 0 to 100 scale where 0 is no effect and 100 is complete control, read-out: Pigweed plant response rating
[28] = Preemergence, visual injury vs untreated controls after approximately 10 d, read-out: Pigweed plant response rating (0 to 100 scale where 0 is no effect and 100 is complete control)
[29] = 0 to 100 scale where 0 is no effect and 100 is complete control

## CC(C)c1cccc([C@H]2CN(C)C(=O)[C@@H]2C(=O)Nc2ccc(F)cc2F)c1 [Compound 821]
[1]; [16]
  pest or weed control at 125 g/ha: 0%
[2]; [17]
  pest or weed control at 125 g/ha: 80%
[3]; [18]
  plant injury at 125 g/ha: 0%
[4]; [19]
  pest or weed control at 125 g/ha: 50%
[5]; [20]
  plant injury at 125 g/ha: 40%
[6]; [21]
  pest or weed control at 125 g/ha: 70%
[7]; [22]
  pest or weed control at 125 g/ha: 30%
[8]; [23]
  pest or weed control at 125 g/ha: 0%
[9]; [24]
  pest or weed control at 125 g/ha: 20%
[10]; [25]
  pest or weed control at 125 g/ha: 90%
[11]; [26]
  pest or weed control at 250 g/ha: 80%
[12]; [26]
  pest or weed control at 250 g/ha: 0%
[13]; [26]
  pest or weed control at 250 g/ha: 0%
[14]; [26]
  pest or weed control at 250 g/ha: 60%
[15]; [27]
  pest or weed control at 125 g/ha: 50%
[15]; [28]
  pest or weed control at 500 g/ha: 50%

## CCc1cc([C@H]2CN(C)C(=O)[C@@H]2C(=O)Nc2cccc(F)c2F)cs1 [Compound 1157]
[1]; visual injury vs untreated controls after approx. 10 d, 0 = no effect, 100 = complete control, read-out: Ragweed plant response rating (0 to 100 scale)
  pest or weed control at 125 g/ha: 0%
[1]; 500 g ai/ha, 0 to 100 scale, 0 is no effect, 100 is complete control, read-out: Ragweed plant response rating
  pest or weed control at 500 g/ha: 50%
[2]; visual injury vs untreated controls after approx. 10 d, 0 = no effect, 100 = complete control, read-out: Foxtail, Giant plant response rating (0 to 100 scale)
  pest or weed control at 125 g/ha: 90%
[2]; 500 g ai/ha, 0 to 100 scale, 0 is no effect, 100 is complete control, read-out: Foxtail, Giant plant response rating
  pest or weed control at 500 g/ha: 90%
[3]; visual injury vs untreated controls after approx. 10 d, 0 = no effect, 100 = complete control, read-out: Wheat plant response rating (0 to 100 scale)
  plant injury at 125 g/ha: 30%
[3]; 500 g ai/ha, 0 to 100 scale, 0 is no effect, 100 is complete control, read-out: Wheat plant response rating
  plant injury at 500 g/ha: 70%
[4]; visual injury vs untreated controls after approx. 10 d, 0 = no effect, 100 = complete control, read-out: Galium plant response rating (0 to 100 scale)
  pest or weed control at 125 g/ha: 50%
[4]; 500 g ai/ha, 0 to 100 scale, 0 is no effect, 100 is complete control, read-out: Galium plant response rating
  pest or weed control at 500 g/ha: 60%
[5]; visual injury vs untreated controls after approx. 10 d, 0 = no effect, 100 = complete control, read-out: Corn plant response rating (0 to 100 scale)
  plant injury at 125 g/ha: 40%
[5]; 500 g ai/ha, 0 to 100 scale, 0 is no effect, 100 is complete control, read-out: Corn plant response rating
  plant injury at 500 g/ha: 50%
[6]; visual injury vs untreated controls after approx. 10 d, 0 = no effect, 100 = complete control, read-out: Blackgrass plant response rating (0 to 100 scale)
  pest or weed control at 125 g/ha: 0%
[6]; 500 g ai/ha, 0 to 100 scale, 0 is no effect, 100 is complete control, read-out: Blackgrass plant response rating
  pest or weed control at 500 g/ha: 50%
[7]; visual injury vs untreated controls after approx. 10 d, 0 = no effect, 100 = complete control, read-out: Kochia plant response rating (0 to 100 scale)
  pest or weed control at 125 g/ha: 0%
[7]; 500 g ai/ha, 0 to 100 scale, 0 is no effect, 100 is complete control, read-out: Kochia plant response rating
  pest or weed control at 500 g/ha: 50%
[8]; visual injury vs untreated controls after approx. 10 d, 0 = no effect, 100 = complete control, read-out: Pigweed plant response rating (0 to 100 scale)
  pest or weed control at 125 g/ha: 0%
[8]; 500 g ai/ha, 0 to 100 scale, 0 is no effect, 100 is complete control, read-out: Pigweed plant response rating
  pest or weed control at 500 g/ha: 0%
[9]; visual injury vs untreated controls after approx. 10 d, 0 = no effect, 100 = complete control, read-out: Ryegrass, Italian plant response rating (0 to 100 scale)
  pest or weed control at 125 g/ha: 0%
[9]; 500 g ai/ha, 0 to 100 scale, 0 is no effect, 100 is complete control, read-out: Ryegrass, Italian plant response rating
  pest or weed control at 500 g/ha: 40%
[10]; visual injury vs untreated controls after approx. 10 d, 0 = no effect, 100 = complete control, read-out: Barnyardgrass plant response rating (0 to 100 scale)
  pest or weed control at 125 g/ha: 90%
[10]; 500 g ai/ha, 0 to 100 scale, 0 is no effect, 100 is complete control, read-out: Barnyardgrass plant response rating
  pest or weed control at 500 g/ha: 90%
[11]; [29]
  pest or weed control at 250 g/ha: 98%
[12]; [29]
  pest or weed control at 250 g/ha: 0%
[13]; [29]
  pest or weed control at 250 g/ha: 0%
[14]; [29]
  pest or weed control at 250 g/ha: 55%
[15]; preemergence, 0 to 100 scale where 0 is no effect and 100 is complete control, approx. 10 d, read-out: Pigweed plant response rating
  pest or weed control at 125 g/ha: 30%
[15]; [27]
  pest or weed control at 500 g/ha: 60%

## O=C1NCC(c2cccc(I)c2)C1C(=O)Nc1ccccc1F (stereo not shown) [Compound 845]
[1]; [16]
  pest or weed control at 125 g/ha: 0%
[2]; [17]
  pest or weed control at 125 g/ha: 90%
[3]; [18]
  plant injury at 125 g/ha: 0%
[4]; [19]
  pest or weed control at 125 g/ha: 20%
[5]; [20]
  plant injury at 125 g/ha: 30%
[6]; [21]
  pest or weed control at 125 g/ha: 40%
[7]; [22]
  pest or weed control at 125 g/ha: 0%
[8]; [23]
  pest or weed control at 125 g/ha: 0%
[9]; [24]
  pest or weed control at 125 g/ha: 30%
[10]; [25]
  pest or weed control at 125 g/ha: 80%
[11]; [26]
  pest or weed control at 250 g/ha: 0%
[12]; [26]
  pest or weed control at 250 g/ha: 0%
[13]; [26]
  pest or weed control at 250 g/ha: 20%
[14]; [26]
  pest or weed control at 250 g/ha: 30%
[15]; [27]
  pest or weed control at 125 g/ha: 0%
[15]; [28]
  pest or weed control at 500 g/ha: 0%
